Square brackets hold non-standard residues; d marks the D form. Peptide text beside a SMILES is read from it. * marks the point of attachment. dPhe(4-NHCONH2) = NC(=O)Nc1ccc(C[C@@H](N)C(=O)O)cc1; Dihydroorotyl(S) = O=C1C[C@@H](C(=O)*)NC(=O)N1; dPhe(4-Cl) = N[C@H](Cc1ccc(Cl)cc1)C(=O)O; Phe(4-NH2) = Nc1ccc(C[C@H](N)C(=O)O)cc1; d2Nal = N[C@H](Cc1ccc2ccccc2c1)C(=O)O; Lys(iPr) = CC(C)NCCCC[C@H](N)C(=O)O; d3Pal = N[C@H](Cc1cccnc1)C(=O)O
Assays:
[1] = Visual inspection of samples for turbidity and viscosity; type: physicochemical; conditions: all samples 0.1-10 mM acetate salt in 100% H2O, no buffer, no pH adjustment; NMR tube in light box compared with pure water; room temperature
Method: (§1) ^1H NMR experiments were performed at peptide concentrations of 0.1, 0.5, 1, 2, 5, and 10 mM in 100% H2O. Peptide solutions were prepared in glass vials without pH adjustments, as the addition of concentrated acid or base results in local pH variations that might induce aggregation. Diffusion NMR experiments were performed at peptide concentrations of 3 and 10 mM in 100% D2O. Thus, the diffusion NMR results may not be perfectly representative of the situation in the samples in H2O, but general conclusions can still be drawn.
(§2) The samples were gently agitated, by manual swirling, until the solution appeared visually homogeneous and 450 μL of each sample was transferred to disposable 5 mm NMR tubes (Type 5TA 178 mm from Teknolab Sorbent, Sweden). Aliquots were pipetted slowly to reduce the risk of possible shear-induced aggregation. The time between sample preparation and the start of the NMR measurement was around 15 min. On selected samples, the approximate pH was assessed with pH indicator strips (Scharlau, pH 2.0–9.0, TP0209000S) after aliquots for the NMR samples were taken out.
The NMR tubes containing samples were visually inspected in a light box and compared to an NMR tube containing pure water to simplify identification of visually detectable aggregates.

[2] = 1H NMR in neat H2O, aggregation with concentration and time; type: physicochemical
Method: as §1, §2
NMR experiments were performed at 25 °C on either a Varian Unity Inova 500 MHz spectrometer equipped with a Z-spec DBG500-5EF 5 mm dual broadband gradient probe or a Bruker AVANCE III HD 500 MHz spectrometer equipped with a BBO probe, Bruker SMART probe. Spectra were recorded with an excitation sculpting sequence for solvent suppression.[40] […] On the Varian, 300 scans were used on samples of 0.1–1 mM and 64 on 1–10 mM (1 mM was measured using both settings to bridge the concentration series and ensure comparability), which gave adequate signal for unaggregated samples. […]
The absolute integral values (IntC), at each investigated concentration, for signals arising from the methyl groups of leucine (6H; for D-Phe^6-GnRH, cetrorelix, and degarelix) or nor-leucine (3H; for ozarelix) were determined. […] Additionally, IntC of the signal from the acetate counterion (a singlet) were determined for all peptides. […]

[3] = Approximate sample pH by pH indicator strips; type: physicochemical; conditions: all concentrations and time points investigated, H2O
[4] = set-up: method as in PMID 33586081; conditions: seen as reduction in total detectable signal and decrease in fraction of sharp signals; cited from earlier work

- Visual appearance of samples over the investigated time span [1]: visually clear
- Concentration at which a distinct group of broad peaks at 1.2-1.6 ppm (intermediately sized aggregates) appears ([2]; 1H NMR, 25 °C, 100% H2O): ≥ 1000 µM
- Change of 1H NMR spectra over time, 5 and 10 mM samples ([2]; 5 and 10 mM in 100% H2O, over investigated timespan (ozarelix: rapid 4 scan experiments about 15 and 25 min after preparation, 24 h)): increased notably in intensity
- Fate of acetate counterions in the peptide aggregates formed (1H NMR acetate signal) ([2]; acetate salts, 0.1-10 mM in 100% H2O, 25 °C): exclusion
- Sample pH [3]: ~ 5.5
SMILES: CC(=O)N[C@H](Cc1ccc2ccccc2c1)C(=O)N[C@H](Cc1ccc(Cl)cc1)C(=O)N[C@H](Cc1cccnc1)C(=O)N[C@@H](CO)C(=O)N[C@@H](Cc1ccc(NC(=O)[C@@H]2CC(=O)NC(=O)N2)cc1)C(=O)N[C@H](Cc1ccc(NC(N)=O)cc1)C(=O)N[C@@H](CC(C)C)C(=O)N[C@@H](CCCCNC(C)C)C(=O)N1CCC[C@H]1C(=O)N[C@H](C)C(N)=O [degarelix] (Ac-[d2Nal][dPhe(4-Cl)][d3Pal]S[Phe(4-NH2)](Dihydroorotyl(S))[dPhe(4-NHCONH2)]L[Lys(iPr)]P[dA]-NH2)
- Effect of buffer or background salt on aggregation (1H NMR) [4]: strongly enhance aggregation
